{"source": "patent US20120040930A1", "about": "“TETRACYCLIC TERPENE SERIES COMPOUNDS, METHODS FOR PREPARING SAME, USES THEREOF AS MEDICINES AND PHARMACEUTICAL COMPOUNDS CONTAINING SAME” (priority 2005, published 2012)", "key": {"[1]": {"system": "skeletal neuromuscular junction", "assay": "Cellular electrophysiology on isolated mouse neuromuscular preparations", "method": "This extension of synaptic potentials is observed when the mouse neuromuscular preparations are placed in a normal survival medium (Krebs-Ringer) containing (in mM) NaCl, 151; KCl, 5; MgCl2, 1; CaCl2, 2; glucose, 11; and HEPES-NaOH, 5 (pH 7.4); and when the survival medium contains low concentrations of CaCl2 (0.4-1 mM) and high concentrations of MgCl2 (4-8 mM) to reduce the release of acetylcholine. The extension of synaptic potentials at the neuromuscular junction reflects the mean lifespan of synaptic channels opened by acetylcholine during their interactions with skeletal muscle nicotinic receptors. Inhibition of acetylcholinesterase increases acetylcholine concentration at the synaptic cleft, which allows acetylcholine to bind repeatedly with these receptors, thus extending the duration of synaptic responses.\nThus, the inhibition of acetylcholinesterase by this compound is not accompanied by depolarization of the muscle membrane.\nFrom a pharmacological point of view, the inventors first tested the ability of compound 8e to modify nerve axon conduction."}, "[2]": {"target": "T1, acetylcholinesterase (AChE) isolated from Electrophorus electricus (Electrophorus electricus, UniProt O42275)", "T1 construct": "AChE isolated from Electrophorus electricus; from tissue", "T1 sequence (O42275 24-633)": "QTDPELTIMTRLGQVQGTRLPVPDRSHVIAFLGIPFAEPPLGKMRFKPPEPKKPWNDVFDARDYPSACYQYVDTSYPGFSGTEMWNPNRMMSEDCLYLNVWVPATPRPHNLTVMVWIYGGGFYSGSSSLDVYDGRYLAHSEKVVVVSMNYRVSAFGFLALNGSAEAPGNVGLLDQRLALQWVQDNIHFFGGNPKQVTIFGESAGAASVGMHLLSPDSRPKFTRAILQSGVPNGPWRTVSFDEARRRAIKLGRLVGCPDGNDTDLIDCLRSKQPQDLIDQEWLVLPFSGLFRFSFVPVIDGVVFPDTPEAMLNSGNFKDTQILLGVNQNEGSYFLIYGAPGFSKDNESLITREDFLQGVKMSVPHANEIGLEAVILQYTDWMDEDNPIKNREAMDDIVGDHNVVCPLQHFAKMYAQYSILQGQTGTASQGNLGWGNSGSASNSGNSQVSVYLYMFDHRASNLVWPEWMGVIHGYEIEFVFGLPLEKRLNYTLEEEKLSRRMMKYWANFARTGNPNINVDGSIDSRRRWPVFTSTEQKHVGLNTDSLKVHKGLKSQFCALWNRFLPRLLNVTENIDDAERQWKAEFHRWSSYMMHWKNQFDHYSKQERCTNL", "assay": "biochemical", "conditions": "AChE isolated from Electrophorus electricus; read-out: AChE IC50"}, "[3]": {"target": "T2, muscle nicotinic acetylcholine receptors (Mus musculus, UniProt P02716+P04756+P09690+P20782)", "T2 construct": "isolated living vertebrate (frog and mouse) neuromuscular preparations; from tissue; host or cells: isolated mouse neuromuscular preparation", "T2 sequence (P04756 21-457)": "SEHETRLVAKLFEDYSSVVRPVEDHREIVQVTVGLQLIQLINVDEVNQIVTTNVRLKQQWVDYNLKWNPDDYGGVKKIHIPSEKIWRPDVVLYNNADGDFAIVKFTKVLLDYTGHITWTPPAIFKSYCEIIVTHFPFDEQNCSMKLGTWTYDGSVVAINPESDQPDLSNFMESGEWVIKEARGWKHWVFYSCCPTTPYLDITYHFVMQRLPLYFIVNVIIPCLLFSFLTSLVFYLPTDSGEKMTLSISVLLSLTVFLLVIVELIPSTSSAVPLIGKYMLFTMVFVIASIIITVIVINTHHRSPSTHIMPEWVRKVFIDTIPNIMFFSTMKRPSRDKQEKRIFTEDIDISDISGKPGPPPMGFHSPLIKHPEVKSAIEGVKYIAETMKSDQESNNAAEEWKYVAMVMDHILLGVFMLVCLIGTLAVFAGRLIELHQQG", "T2 sequence (P09690 24-501)": "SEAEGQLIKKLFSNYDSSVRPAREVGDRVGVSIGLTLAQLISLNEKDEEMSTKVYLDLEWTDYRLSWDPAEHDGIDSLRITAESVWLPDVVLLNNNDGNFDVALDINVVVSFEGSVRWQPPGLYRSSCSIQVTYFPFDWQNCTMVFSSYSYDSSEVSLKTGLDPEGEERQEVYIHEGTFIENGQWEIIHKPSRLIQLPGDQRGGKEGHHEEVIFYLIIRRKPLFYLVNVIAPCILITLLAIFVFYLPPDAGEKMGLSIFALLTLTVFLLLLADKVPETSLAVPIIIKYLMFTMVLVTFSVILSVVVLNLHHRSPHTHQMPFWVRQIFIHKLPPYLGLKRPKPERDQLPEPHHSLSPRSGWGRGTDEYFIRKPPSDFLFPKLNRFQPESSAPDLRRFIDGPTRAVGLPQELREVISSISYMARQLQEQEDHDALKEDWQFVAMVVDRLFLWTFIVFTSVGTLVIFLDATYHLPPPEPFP", "T2 sequence (P02716 25-520)": "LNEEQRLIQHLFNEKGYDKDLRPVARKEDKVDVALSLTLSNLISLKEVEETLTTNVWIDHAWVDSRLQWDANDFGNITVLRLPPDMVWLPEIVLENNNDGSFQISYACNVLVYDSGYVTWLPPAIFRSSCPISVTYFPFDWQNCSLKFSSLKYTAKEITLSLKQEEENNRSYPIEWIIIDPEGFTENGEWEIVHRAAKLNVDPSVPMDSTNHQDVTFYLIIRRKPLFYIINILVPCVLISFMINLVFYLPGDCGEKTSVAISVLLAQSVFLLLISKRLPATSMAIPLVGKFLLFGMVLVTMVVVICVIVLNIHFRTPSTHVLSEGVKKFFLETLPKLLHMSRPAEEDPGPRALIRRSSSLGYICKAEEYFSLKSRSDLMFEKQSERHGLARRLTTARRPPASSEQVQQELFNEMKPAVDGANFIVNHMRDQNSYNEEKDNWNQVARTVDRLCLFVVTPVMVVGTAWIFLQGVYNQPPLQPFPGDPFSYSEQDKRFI", "T2 sequence (P20782 21-493)": "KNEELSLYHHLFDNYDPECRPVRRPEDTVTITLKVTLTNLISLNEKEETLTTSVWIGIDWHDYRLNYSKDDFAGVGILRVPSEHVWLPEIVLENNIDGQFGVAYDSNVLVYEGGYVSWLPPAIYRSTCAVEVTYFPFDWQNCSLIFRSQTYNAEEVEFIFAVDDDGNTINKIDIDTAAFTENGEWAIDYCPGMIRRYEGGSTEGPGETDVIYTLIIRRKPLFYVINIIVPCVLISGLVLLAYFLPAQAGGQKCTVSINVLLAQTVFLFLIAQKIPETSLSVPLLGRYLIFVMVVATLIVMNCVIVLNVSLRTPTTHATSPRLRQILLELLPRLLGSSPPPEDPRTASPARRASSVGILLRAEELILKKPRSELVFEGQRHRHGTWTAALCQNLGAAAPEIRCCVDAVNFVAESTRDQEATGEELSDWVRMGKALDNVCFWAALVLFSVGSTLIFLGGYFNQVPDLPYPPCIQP", "assay": "Electrophysiology: interaction with muscle nicotinic acetylcholine receptors, mouse neuromuscular junction", "description": "(§1) Secondly, the inventors determined, using electrophysiology, the ability of compound 8e to interact with muscle nicotinic acetylcholine receptors."}, "[4]": {"target": "T3, human serum butyrylcholinesterase (BChE) (Homo sapiens, UniProt P06276)", "T3 construct": "BChE isolated from human serum; from tissue; host or cells: human serum", "T3 sequence (P06276 29-602)": "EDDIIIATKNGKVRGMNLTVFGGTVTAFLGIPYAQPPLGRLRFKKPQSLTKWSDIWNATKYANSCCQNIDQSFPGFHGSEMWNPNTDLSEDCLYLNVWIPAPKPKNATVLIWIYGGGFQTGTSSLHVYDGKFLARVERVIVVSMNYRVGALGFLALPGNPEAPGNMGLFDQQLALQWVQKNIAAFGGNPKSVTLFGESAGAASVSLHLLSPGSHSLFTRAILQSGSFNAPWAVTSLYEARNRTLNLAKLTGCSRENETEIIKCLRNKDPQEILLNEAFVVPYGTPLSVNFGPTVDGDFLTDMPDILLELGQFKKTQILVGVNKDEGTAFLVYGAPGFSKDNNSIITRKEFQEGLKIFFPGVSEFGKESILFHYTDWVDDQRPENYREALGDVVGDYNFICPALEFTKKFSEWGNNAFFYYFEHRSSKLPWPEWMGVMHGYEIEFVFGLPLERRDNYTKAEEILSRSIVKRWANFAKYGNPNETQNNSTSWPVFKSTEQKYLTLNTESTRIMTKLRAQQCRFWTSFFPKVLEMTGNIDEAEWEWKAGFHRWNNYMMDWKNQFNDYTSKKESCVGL", "assay": "biochemical", "conditions": "human serum BChE; read-out: BChE"}, "[5]": {"system": "muscle nicotinic acetylcholine receptors", "assay": "Electrophysiology: interaction with muscle nicotinic acetylcholine receptors, frog neuromuscular junction", "conditions": "160 μM", "description": "as §1"}}, "data": [{"smiles": "CC[C@H](C)C1=N[C@H]2CC=C3C[C@H]4C(=O)C[C@]5(C)[C@@H]([C@H](C)N(C)C)[C@H](O)C[C@@]5(C)[C@@H]4CC[C@H]3[C@]2(C)CO1", "note": "[Compound 8e, (20S)-10(9->1)abeo-4,14α-dimethyl-20-dimethylamino(2′-(S-1-methylpropyl)-4′,4′-dihydro[3′,1′]oxazin)-5α,9-pregn-1(10)-en-16α-ol-11-one]", "values": [{"measurement": "nerve axon conduction", "setting": "[1]; 1 μM to 300 μM, mouse neuromuscular preparations", "result": "does not apparently modify nerve conduction"}, {"measurement": "synaptic response half-times (motor end-plate potentials and miniature end-plate potentials)", "setting": "[1]; 1-25 μM, mouse neuromuscular preparations, normal Krebs-Ringer or low CaCl2/high MgCl2 medium", "result": "produces an extension of synaptic response half-times"}, {"measurement": "effect on muscle fiber resting potentials", "setting": "[1]; concentrations that extend synaptic potentials and higher (160-200 μM)", "result": "does not have a significant effect"}, {"measurement": "IC50", "setting": "[2]", "result": 0.013, "unit": "µM"}, {"measurement": "motor end-plate miniature potentials", "setting": "[3]; 80 μM, species not given", "result": "causes a decrease in amplitude and blocking"}, {"measurement": "block of motor end-plate potentials evoked by motor nerve stimulation", "setting": "[3]; 160 μM, mouse neuromuscular junction", "result": 80, "unit": "%"}, {"measurement": "IC50", "setting": "[4]", "result": "> 1", "unit": "µM"}, {"measurement": "block of motor end-plate potentials evoked by motor nerve stimulation", "setting": "[5]", "result": 80, "unit": "%"}]}]}
